Measurements reported in the NIST ThermoML archive (doi:10.1016/j.jct.2011.06.007).
Numbers after ± are expanded uncertainties.

Experiment: activity coefficient (dimensionless); of the first substance listed, at infinite dilution; xn = mol fraction of the nth substance listed
Settings: 101 kPa, Liquid, Chromatography, x1 = 0

| Structure (SMILES) | activity coefficient (318.15 K) | activity coefficient (328.15 K) | activity coefficient (338.15 K) | activity coefficient (348.15 K) | activity coefficient (358.15 K) | activity coefficient (368.15 K) |
| --- | --- | --- | --- | --- | --- | --- |
| Cc1ccccc1C [1,2-dimethylbenzene] + CCCC[N+]1(C)CCCC1.N#C[B-](C#N)(C#N)C#N | 1.34 ± 0.09 | 1.36 ± 0.09 | 1.39 ± 0.09 | 1.41 ± 0.09 | 1.43 ± 0.09 | 1.46 ± 0.1 |
| Cc1cccc(C)c1 [1,3-dimethylbenzene] + CCCC[N+]1(C)CCCC1.N#C[B-](C#N)(C#N)C#N | 1.54 ± 0.1 | 1.56 ± 0.1 | 1.59 ± 0.11 | 1.62 ± 0.11 | 1.64 ± 0.11 | 1.66 ± 0.11 |
| Cc1ccc(C)cc1 [1,4-dimethylbenzene] + CCCC[N+]1(C)CCCC1.N#C[B-](C#N)(C#N)C#N | 1.46 ± 0.1 | 1.49 ± 0.1 | 1.54 ± 0.1 | 1.58 ± 0.1 | 1.59 ± 0.11 | 1.62 ± 0.11 |
| C=CCCCCCCCC [1-decene] + CCCC[N+]1(C)CCCC1.N#C[B-](C#N)(C#N)C#N | 29.7 ± 2 | 28.3 ± 1.9 | 27.1 ± 1.9 | 26.1 ± 1.8 | 23.5 ± 1.6 | 22.8 ± 1.6 |
| C=CCCCCC [1-heptene] + CCCC[N+]1(C)CCCC1.N#C[B-](C#N)(C#N)C#N | 10.7 ± 0.7 | 10.2 ± 0.7 | 10 ± 0.7 | 9.72 ± 0.66 | 9.09 ± 0.62 | 8.93 ± 0.61 |
| C#CCCCCC [1-heptyne] + CCCC[N+]1(C)CCCC1.N#C[B-](C#N)(C#N)C#N | 3.49 ± 0.24 | 3.5 ± 0.24 | 3.51 ± 0.24 | 3.53 ± 0.24 | 3.54 ± 0.24 | 3.56 ± 0.24 |
| C#CCCCC [1-hexyne] + CCCC[N+]1(C)CCCC1.N#C[B-](C#N)(C#N)C#N | 2.53 ± 0.17 | 2.56 ± 0.17 | 2.58 ± 0.18 | 2.63 ± 0.18 | 2.63 ± 0.18 | 2.68 ± 0.18 |
| C#CCCCCCC [1-octyne] + CCCC[N+]1(C)CCCC1.N#C[B-](C#N)(C#N)C#N | 4.93 ± 0.34 | 4.9 ± 0.33 | 4.88 ± 0.33 | 4.85 ± 0.33 | 4.81 ± 0.33 | 4.78 ± 0.33 |
| C=CCCC [1-pentene] + CCCC[N+]1(C)CCCC1.N#C[B-](C#N)(C#N)C#N | 5.58 ± 0.38 | 5.32 ± 0.36 | 5.3 ± 0.36 | 5.24 ± 0.36 | 5.01 ± 0.34 | 5.02 ± 0.34 |
| CC(C)CC(C)(C)C [2,2,4-trimethylpentane] + CCCC[N+]1(C)CCCC1.N#C[B-](C#N)(C#N)C#N | 27.5 ± 1.9 | 25.4 ± 1.7 | 23.5 ± 1.6 | 22.5 ± 1.5 | 20.9 ± 1.4 | 20 ± 1.4 |
| CCC(C)(C)C [2,2-dimethylbutane] + CCCC[N+]1(C)CCCC1.N#C[B-](C#N)(C#N)C#N | 15.7 ± 1.1 | 14 ± 1 | 13.2 ± 0.9 | 12.9 ± 0.9 | 12.1 ± 0.8 | 11.2 ± 0.8 |
| CCC(C)(C)OC [2-methoxy-2-methylbutane] + CCCC[N+]1(C)CCCC1.N#C[B-](C#N)(C#N)C#N | 3.32 ± 0.23 | 3.34 ± 0.23 | 3.35 ± 0.23 | 3.36 ± 0.23 | 3.37 ± 0.23 | 3.39 ± 0.23 |
| COC(C)(C)C [2-methoxy-2-methylpropane] + CCCC[N+]1(C)CCCC1.N#C[B-](C#N)(C#N)C#N | 2.37 ± 0.16 | 2.39 ± 0.16 | 2.46 ± 0.17 | 2.48 ± 0.17 | 2.52 ± 0.17 | 2.55 ± 0.17 |
| CCC(C)CC [3-methylpentane] + CCCC[N+]1(C)CCCC1.N#C[B-](C#N)(C#N)C#N | 14.9 ± 1 | 13.8 ± 0.9 | 13 ± 0.9 | 12.6 ± 0.9 | 11.8 ± 0.8 | 11.2 ± 0.8 |
| CC(C)=O [acetone] + CCCC[N+]1(C)CCCC1.N#C[B-](C#N)(C#N)C#N | 0.439 ± 0.035 | 0.441 ± 0.035 | 0.454 ± 0.036 | 0.464 ± 0.036 | 0.468 ± 0.037 | 0.485 ± 0.037 |
| c1ccccc1 [benzene] + CCCC[N+]1(C)CCCC1.N#C[B-](C#N)(C#N)C#N | 0.81 ± 0.052 | 0.816 ± 0.053 | 0.836 ± 0.054 | 0.855 ± 0.055 | 0.87 ± 0.056 | 0.887 ± 0.056 |
| CCCCO [butan-1-ol] + CCCC[N+]1(C)CCCC1.N#C[B-](C#N)(C#N)C#N | 1.88 ± 0.13 | 1.67 ± 0.11 | 1.55 ± 0.1 | 1.44 ± 0.09 | 1.33 ± 0.09 | 1.23 ± 0.08 |
| C1CCCCCC1 [cycloheptane] + CCCC[N+]1(C)CCCC1.N#C[B-](C#N)(C#N)C#N | 10.4 ± 0.7 | 9.7 ± 0.66 | 9.18 ± 0.63 | 8.85 ± 0.6 | 8.21 ± 0.56 | 7.78 ± 0.53 |

| Structure (SMILES) | activity coefficient (318.15 K) | activity coefficient (328.15 K) | activity coefficient (338.15 K) | activity coefficient (348.15 K) | activity coefficient (358.15 K) | activity coefficient (368.15 K) |
| --- | --- | --- | --- | --- | --- | --- |
| C1CCCCC1 [cyclohexane] + CCCC[N+]1(C)CCCC1.N#C[B-](C#N)(C#N)C#N | 8.42 ± 0.57 | 7.8 ± 0.53 | 7.45 ± 0.51 | 7.23 ± 0.49 | 6.75 ± 0.46 | 6.47 ± 0.44 |
| C1=CCCCC1 [cyclohexene] + CCCC[N+]1(C)CCCC1.N#C[B-](C#N)(C#N)C#N | 4.09 ± 0.28 | 3.97 ± 0.27 | 3.93 ± 0.27 | 3.88 ± 0.26 | 3.73 ± 0.25 | 3.71 ± 0.25 |
| C1CCCCCCC1 [cyclooctane] + CCCC[N+]1(C)CCCC1.N#C[B-](C#N)(C#N)C#N | 13.5 ± 0.9 | 12.5 ± 0.9 | 11.6 ± 0.8 | 11.2 ± 0.8 | 10.3 ± 0.7 | 9.76 ± 0.67 |
| C1CCCC1 [cyclopentane] + CCCC[N+]1(C)CCCC1.N#C[B-](C#N)(C#N)C#N | 5.87 ± 0.4 | 5.47 ± 0.37 | 5.27 ± 0.36 | 5.18 ± 0.35 | 4.88 ± 0.33 | 4.72 ± 0.32 |
| CCCCCCCCCC [decane] + CCCC[N+]1(C)CCCC1.N#C[B-](C#N)(C#N)C#N | 65.7 ± 4.5 | 59.5 ± 4.1 | 53.8 ± 3.7 | 50.4 ± 3.5 | 44.9 ± 3.1 | 42.1 ± 2.9 |
| CCOCC [diethyl ether] + CCCC[N+]1(C)CCCC1.N#C[B-](C#N)(C#N)C#N | 2.32 ± 0.16 | 2.33 ± 0.16 | 2.34 ± 0.16 | 2.36 ± 0.16 | 2.37 ± 0.16 | 2.39 ± 0.16 |
| CC(C)OC(C)C [diisopropyl ether] + CCCC[N+]1(C)CCCC1.N#C[B-](C#N)(C#N)C#N | 6.08 ± 0.41 | 5.94 ± 0.4 | 5.91 ± 0.4 | 5.82 ± 0.4 | 5.75 ± 0.39 | 5.68 ± 0.39 |
| CCCOCCC [dipropyl ether] + CCCC[N+]1(C)CCCC1.N#C[B-](C#N)(C#N)C#N | 5.78 ± 0.39 | 5.65 ± 0.39 | 5.51 ± 0.38 | 5.42 ± 0.37 | 5.33 ± 0.36 | 5.26 ± 0.36 |
| CCO [ethanol] + CCCC[N+]1(C)CCCC1.N#C[B-](C#N)(C#N)C#N | 1.29 ± 0.08 | 1.17 ± 0.07 | 1.09 ± 0.07 | 1.02 ± 0.06 | 0.95 ± 0.06 | 0.894 ± 0.057 |
| CCc1ccccc1 [ethylbenzene] + CCCC[N+]1(C)CCCC1.N#C[B-](C#N)(C#N)C#N | 1.56 ± 0.1 | 1.58 ± 0.1 | 1.6 ± 0.11 | 1.64 ± 0.11 | 1.66 ± 0.11 | 1.69 ± 0.11 |
| CCCCCCC [heptane] + CCCC[N+]1(C)CCCC1.N#C[B-](C#N)(C#N)C#N | 23 ± 1.6 | 21.5 ± 1.5 | 19.8 ± 1.4 | 19 ± 1.3 | 17.5 ± 1.2 | 16.6 ± 1.1 |
| C=CCCCC [hex-1-ene] + CCCC[N+]1(C)CCCC1.N#C[B-](C#N)(C#N)C#N | 7.68 ± 0.52 | 7.31 ± 0.5 | 7.16 ± 0.49 | 7.03 ± 0.48 | 6.57 ± 0.45 | 6.57 ± 0.45 |
| CCCCCC [hexane] + CCCC[N+]1(C)CCCC1.N#C[B-](C#N)(C#N)C#N | 16.4 ± 1.1 | 15.3 ± 1 | 14.3 ± 1 | 13.8 ± 0.9 | 12.9 ± 0.9 | 12.3 ± 0.8 |
| CO [methanol] + CCCC[N+]1(C)CCCC1.N#C[B-](C#N)(C#N)C#N | 0.991 ± 0.062 | 0.912 ± 0.058 | 0.861 ± 0.055 | 0.812 ± 0.053 | 0.753 ± 0.05 | 0.723 ± 0.048 |
| CC1CCCCC1 [methylcyclohexane] + CCCC[N+]1(C)CCCC1.N#C[B-](C#N)(C#N)C#N | 11.9 ± 0.8 | 11 ± 0.8 | 10.5 ± 0.7 | 10.1 ± 0.7 | 9.38 ± 0.64 | 8.94 ± 0.61 |
| CCCCCCCCC [nonane] + CCCC[N+]1(C)CCCC1.N#C[B-](C#N)(C#N)C#N | 46.2 ± 3.2 | 42.5 ± 2.9 | 38.2 ± 2.6 | 36.3 ± 2.5 | 32.6 ± 2.2 | 30.3 ± 2.1 |
| C=CCCCCCC [oct-1-ene] + CCCC[N+]1(C)CCCC1.N#C[B-](C#N)(C#N)C#N | 15.4 ± 1.1 | 14.6 ± 1 | 14.1 ± 1 | 13.4 ± 0.9 | 12.6 ± 0.9 | 12.5 ± 0.9 |
